Like-named read-outs stand apart in the source and are kept apart here.
Columns and labels:
ATM kinase = molecular target: T1, ATM kinase (Homo sapiens, UniProt Q13315); assay: Assay a) ATM cellular potency (pATM Ser1981 in X-ray irradiated HT29 cells); assay type: cell-based; conditions: HT29 cells, 1 h compound, X-ray ~600 cGy, pATM Ser1981; may be geometric mean of several tests; read-out: Assay a) ATM Cell IC50
T1 construct: endogenous in cells; host or cells: HT29 cells (ECACC #85061109)
Protocol: The following assays were used to measure the effects of the compounds of the present invention: a) ATM cellular potency assay; b) PI3K cellular potency assay; c) mTOR cellular potency assay; d) ATR cellular potency assay. During the description of the assays, generally: • i. […] IC50 values were calculated using a smart fitting model in Genedata. […] Assay a): ATM Cellular Potency Rationale:
Most ATM molecules in the cell are rapidly phosphorylated on this site after doses of radiation as low as 0.5 Gy, and binding of a phosphospecific antibody is detectable after the introduction of only a few DNA double-strand breaks in the cell.
The rationale of the pATM assay is to identify inhibitors of ATM in cells. HT29 cells are incubated with test compounds for 1 hr prior to X-ray-irradiation. 1 h later the cells are fixed and stained for pATM (Ser1981). The fluorescence is read on the arrayscan imaging platform.
The following morning compounds of Formula (I) in 100% DMSO were added to assay plates by acoustic dispensing. After 1 h incubation at 37° C. and 5% CO2, plates (up to 6 at a time) were irradiated using the X-RAD 320 instrument (PXi) with equivalent to ˜600 cGy. Plates were returned to the incubator for a further 1 h. […] Then 20 μl of 0.1% Triton X100 in PBS was added and incubated for 20 minutes at r.t., to permeabalise cells. Then the plates were washed once with 50 μl/well PBS, using a Biotek EL405 plate washer.
After 1 h incubation at r.t., the plates were washed three times with 50 μl/well PBS, using a Biotek EL405 plate washer, and plates were sealed and kept in PBS at 4° C. until read. Plates were read using an ArrayScan VTI instrument, using an XF53 filter with 10× objective.

mTOR = molecular target: T2, mTOR (Homo sapiens, UniProt P42345); assay: Assay d) mTOR cellular potency (phospho-AKT Ser473 in MDA-MB-468 cells); assay type: cell-based
T2 construct: endogenous in cells; host or cells: MDA-MB-468 cells (ATCC HTB 132)
Protocol: Assay d): mTOR Cellular Potency
This assay was used to measure mTOR inhibition in cells. The aim of the phospho-AKT cell based mechanism of action assay using the Acumen Explorer is to identify inhibitors of either PI3Kα or mTOR-Rictor (Rapamycin insensitive companion of mTOR). This is measured by any decrease in the phosphorylation of the Akt protein at Ser473 (AKT lies downstream of PI3Kα in the signal transduction pathway) in the MDA-MB-468 cells following treatment with compound. Method Details:
MDA-MB-468 cells (human breast adenocarcinoma #ATCC HTB 132) were seeded at 1500 cells/well in 40 μl of DMEM containing 10% FBS and 1% glutamine into Greiner 384 well black flat-bottomed plates. Cell plates were incubated for 18 h in a 37° C. incubator before dosing with compounds of Formula (I) in 100% DMSO using acoustic dispensing. Compounds were dosed in a 12 point concentration range into a randomised plate map. Control wells were generated either by dosing of 100% DMSO (max signal) or addition of a reference compound (a PI3K-β inhibitor) that completely eliminated the pAKT signal (min control). Compounds were then tested by one of two assay protocols A or B:
Plates were incubated at 37° C. for 2 h; cells were then fixed by the addition of 10 μl of a 3.7% formaldehyde solution. After 30 minutes the plates were washed with PBS using a Tecan PW384 plate washer. Wells were blocked and cells permeabilised with the addition of 40 μl of PBS containing 0.5% Tween20 and 1% Marvel™ (dried milk powder) and incubated for 60 minutes at r.t. The plates were washed with PBS containing 0.5% (v/v) Tween20 and 20 μl rabbit anti-phospho AKT Ser473 (Cell Signalling Technologies, #3787) in same PBS-Tween+1% Marvel™ was added and incubated overnight at 4° C.
Plates were washed 3 times with PBS+0.05% Tween 20 using a Tecan PW384. 20 μl of secondary antibody Alexa Fluor 488 anti-Rabbit (Molecular Probes, #A11008) diluted in PBS+0.05% Tween20 containing 1% Marvel™ was added to each well and incubated for 1 h at r.t. Plates were washed three times as before then 20 μl PBS added to each well and plates sealed with a black plate sealer.
The plates were read on an Acumen plate reader as soon as possible, measuring green fluorescence after excitation with 488 nm laser. Using this system IC50 values were generated and quality of plates was determined by control wells. Reference compounds were run each time to monitor assay performance.
The cell plates were then incubated for 2 h at 37° C. before being fixed by the addition of 20 μl 3.7% formaldehyde in PBS/A (1.2% final concentration), followed by a 30 minute room temperature incubation, and then a 2× wash with 150 μl PBS/A using a BioTek ELx406 platewasher. Cells were permeabilised and blocked with 20 μl of assay buffer (0.1% Triton X-100 in PBS/A+1% BSA) for 1 h at room temperature, and then washed 1× with 50 μl PBS/A. Primary phospho-AKT (Ser473) D9E XP® rabbit monoclonal antibody (#4060, Cell Signaling Technology) was diluted 1:200 in assay buffer, 20 μl added per well, and plates were incubated at 4° C. overnight. Cell plates were washed 3× with 200 μl PBS/T, then 20 μl 1:750 dilution in assay buffer of Alexa Fluor® 488 goat anti-rabbit IgG secondary antibody (#A11008, Molecular Probes, Life Technologies), with a 1:5000 dilution of Hoechst 33342, was added per well. Following a 1 h incubation at room temperature, plates were washed 3× with 200 μl PBS/T, and 40 μl PBS w/o Ca, Mg and Na Bicarb (Gibco #14190-094) was added per well.
Stained cell plates were covered with black seals, and then read on the Cell Insight imaging platform (Thermo Scientific), with a 10× objective. The primary channel (Hoechst blue fluorescence 405 nM, BGRFR_386_23) was used to Autofocus and to count number of events (this provided information about cytotoxicity of the compounds tested). The secondary channel (Green 488 nM, BGRFR_485_20) measured pAKT staining. […]

[1] = pAKT Ser473, Protocol B (*); read-out: Assay d) mTOR Cell IC50
[2] = pAKT Ser473, Protocol A (§); read-out: Assay d) mTOR Cell IC50

T1 sequence (Q13315 whole entry): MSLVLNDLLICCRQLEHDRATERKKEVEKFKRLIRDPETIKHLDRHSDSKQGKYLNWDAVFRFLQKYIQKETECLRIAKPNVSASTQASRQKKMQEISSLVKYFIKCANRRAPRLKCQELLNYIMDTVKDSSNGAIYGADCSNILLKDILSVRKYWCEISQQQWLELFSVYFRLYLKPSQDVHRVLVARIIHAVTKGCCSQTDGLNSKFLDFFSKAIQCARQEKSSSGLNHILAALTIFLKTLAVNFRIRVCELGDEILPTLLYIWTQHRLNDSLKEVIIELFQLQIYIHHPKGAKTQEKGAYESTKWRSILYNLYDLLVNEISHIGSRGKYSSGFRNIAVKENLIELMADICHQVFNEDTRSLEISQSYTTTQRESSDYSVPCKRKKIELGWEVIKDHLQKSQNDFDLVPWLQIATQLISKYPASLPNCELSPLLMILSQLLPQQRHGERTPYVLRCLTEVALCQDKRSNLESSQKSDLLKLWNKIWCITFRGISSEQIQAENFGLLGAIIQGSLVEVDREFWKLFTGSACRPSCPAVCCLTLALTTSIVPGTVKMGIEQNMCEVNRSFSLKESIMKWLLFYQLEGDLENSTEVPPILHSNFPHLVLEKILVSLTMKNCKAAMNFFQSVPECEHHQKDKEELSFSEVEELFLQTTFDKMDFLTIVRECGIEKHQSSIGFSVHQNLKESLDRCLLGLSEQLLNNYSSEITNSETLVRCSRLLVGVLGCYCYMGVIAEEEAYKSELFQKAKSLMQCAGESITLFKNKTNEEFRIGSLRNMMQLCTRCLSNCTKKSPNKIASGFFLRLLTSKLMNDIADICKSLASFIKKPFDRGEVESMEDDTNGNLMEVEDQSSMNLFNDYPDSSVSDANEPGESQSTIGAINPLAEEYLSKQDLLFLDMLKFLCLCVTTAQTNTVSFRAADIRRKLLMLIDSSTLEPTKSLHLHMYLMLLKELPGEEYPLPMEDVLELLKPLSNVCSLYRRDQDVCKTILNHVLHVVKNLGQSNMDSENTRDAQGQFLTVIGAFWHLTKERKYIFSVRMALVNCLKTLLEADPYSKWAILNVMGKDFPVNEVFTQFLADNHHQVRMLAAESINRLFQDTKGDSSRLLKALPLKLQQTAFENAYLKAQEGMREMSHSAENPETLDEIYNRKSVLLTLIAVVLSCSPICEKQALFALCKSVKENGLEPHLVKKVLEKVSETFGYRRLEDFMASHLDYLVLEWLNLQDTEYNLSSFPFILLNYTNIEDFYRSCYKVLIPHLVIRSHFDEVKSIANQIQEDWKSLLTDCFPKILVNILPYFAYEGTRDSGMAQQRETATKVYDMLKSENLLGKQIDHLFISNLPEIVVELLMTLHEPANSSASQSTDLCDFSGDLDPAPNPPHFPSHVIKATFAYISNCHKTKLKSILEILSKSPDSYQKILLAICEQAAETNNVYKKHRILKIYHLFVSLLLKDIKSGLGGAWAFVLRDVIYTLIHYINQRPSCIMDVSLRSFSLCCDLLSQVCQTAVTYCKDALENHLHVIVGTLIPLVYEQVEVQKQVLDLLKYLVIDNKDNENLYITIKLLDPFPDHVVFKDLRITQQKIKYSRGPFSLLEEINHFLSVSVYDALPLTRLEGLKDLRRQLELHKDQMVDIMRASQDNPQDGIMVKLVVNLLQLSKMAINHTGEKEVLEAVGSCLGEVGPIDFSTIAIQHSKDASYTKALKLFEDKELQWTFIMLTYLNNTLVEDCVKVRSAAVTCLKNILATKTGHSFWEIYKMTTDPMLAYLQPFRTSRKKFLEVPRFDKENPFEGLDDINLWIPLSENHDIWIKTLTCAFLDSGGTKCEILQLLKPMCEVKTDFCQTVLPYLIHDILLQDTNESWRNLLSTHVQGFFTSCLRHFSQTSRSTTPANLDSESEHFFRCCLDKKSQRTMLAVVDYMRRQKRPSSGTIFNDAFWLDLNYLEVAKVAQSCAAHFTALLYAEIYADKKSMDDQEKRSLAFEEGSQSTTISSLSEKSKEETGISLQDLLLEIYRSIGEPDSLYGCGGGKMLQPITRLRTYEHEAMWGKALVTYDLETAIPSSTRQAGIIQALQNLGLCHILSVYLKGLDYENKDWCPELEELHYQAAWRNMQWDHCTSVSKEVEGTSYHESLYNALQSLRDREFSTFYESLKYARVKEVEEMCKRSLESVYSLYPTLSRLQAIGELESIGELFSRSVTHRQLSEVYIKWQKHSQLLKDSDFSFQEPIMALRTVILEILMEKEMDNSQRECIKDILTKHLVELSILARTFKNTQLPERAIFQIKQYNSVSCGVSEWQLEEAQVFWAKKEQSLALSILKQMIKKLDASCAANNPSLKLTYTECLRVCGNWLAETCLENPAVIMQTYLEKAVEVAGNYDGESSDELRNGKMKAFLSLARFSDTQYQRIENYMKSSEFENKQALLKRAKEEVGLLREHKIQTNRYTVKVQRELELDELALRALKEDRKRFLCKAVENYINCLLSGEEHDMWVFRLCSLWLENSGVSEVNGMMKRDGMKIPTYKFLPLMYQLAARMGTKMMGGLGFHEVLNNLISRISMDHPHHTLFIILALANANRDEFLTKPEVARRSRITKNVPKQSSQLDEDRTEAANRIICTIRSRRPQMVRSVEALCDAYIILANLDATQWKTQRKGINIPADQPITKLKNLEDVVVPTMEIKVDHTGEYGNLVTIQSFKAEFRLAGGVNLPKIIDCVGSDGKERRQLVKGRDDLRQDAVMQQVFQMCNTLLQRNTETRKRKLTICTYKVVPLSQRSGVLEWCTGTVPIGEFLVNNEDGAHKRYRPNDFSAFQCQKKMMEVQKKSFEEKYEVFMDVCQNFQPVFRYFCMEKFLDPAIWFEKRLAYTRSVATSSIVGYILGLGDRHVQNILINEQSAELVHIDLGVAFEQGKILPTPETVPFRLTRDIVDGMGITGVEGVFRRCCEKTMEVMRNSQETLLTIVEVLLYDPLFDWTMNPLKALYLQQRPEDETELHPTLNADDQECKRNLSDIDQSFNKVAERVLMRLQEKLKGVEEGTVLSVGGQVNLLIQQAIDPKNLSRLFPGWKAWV

Structure (SMILES)	IC50 (ATM kinase)	IC50 (mTOR; [1])	IC50 (mTOR; [2])
CC(C)n1c(=O)n(C)c2cnc3cc(F)c(-c4ccc(OCCCN5CCCCC5)nc4)cc3c21 [Example 2, 7-Fluoro-1-isopropyl-3-methyl-8-[6-[3-(1-piperidyl)propoxy]-3-pyridyl]imidazo[4,5-c]quinolin-2-one]	0.787 nM	> 30000 nM	–
CC(C)n1c(=O)n(C)c2cnc3cc(F)c(-c4ccc(OCCCN5CCCC5)nc4)cc3c21 [Example 3, 7-Fluoro-1-isopropyl-3-methyl-8-[6-(3-pyrrolidin-1-ylpropoxy)-3-pyridyl]imidazo[4,5-c]quinolin-2-one]	0.824 nM	–	> 20000 nM
CC(C)n1c(=O)n(C)c2cnc3cc(F)c(-c4ccc(OCCCN5CCC5)nc4)cc3c21 [Example 4, 8-[6-[3-(azetidin-1-yl)propoxy]-3-pyridyl]-7-fluoro-1-isopropyl-3-methyl-imidazo[4,5-c]quinolin-2-one]	1.59 nM	–	> 30000 nM
CC(C)n1c(=O)n(C)c2cnc3ccc(-c4ccc(OCCCN(C)C)nc4)cc3c21 [Example 6, 8-[6-[3-(dimethylamino)propoxy]-3-pyridyl]-1-isopropyl-3-methyl-imidazo[4,5-c]quinolin-2-one]	0.398 nM	–	> 3120 nM
CC(C)n1c(=O)n(C)c2cnc3ccc(-c4ccc(OCCCN5CCCC5)nc4)cc3c21 [Example 7, 1-isopropyl-3-methyl-8-[6-(3-pyrrolidin-1-ylpropoxy)-3-pyridyl]imidazo[4,5-c]quinolin-2-one]	0.256 nM	3190 nM	–
CC(C)n1c(=O)n(C)c2cnc3ccc(-c4ccc(OCCCN5CCC5)nc4)cc3c21 [Example 8, 8-[6-[3-(Azetidin-1-yl)propoxy]-3-pyridyl]-1-isopropyl-3-methyl-imidazo[4,5-c]quinolin-2-one]	0.698 nM	405 nM	–
CC(C)n1c(=O)n(C)c2cnc3ccc(-c4ccc(OCCCN5CCCCC5)nc4F)cc3c21 [Example 9, 8-[2-Fluoro-6-[3-(1-piperidyl)propoxy]-3-pyridyl]-1-isopropyl-3-methyl-imidazo[4,5-c]quinolin-2-one]	< 0.453 nM	–	> 5190 nM
CC(C)n1c(=O)n(C)c2cnc3ccc(-c4ccc(OCCCN(C)C)nc4F)cc3c21 [Example 10, 8-[6-[3-(dimethylamino)propoxy]-2-fluoro-3-pyridyl]-1-isopropyl-3-methyl-imidazo[4,5-c]quinolin-2-one]	0.686 nM	3490 nM	–
CC(C)n1c(=O)n(C)c2cnc3ccc(-c4ccc(OCCCN5CCCC5)nc4F)cc3c21 [Example 12, 8-[2-fluoro-6-(3-pyrrolidin-1-ylpropoxy)-3-pyridyl]-1-isopropyl-3-methyl-imidazo[4,5-c]quinolin-2-one]	0.799 nM	> 10000 nM	–
CC(C)n1c(=O)n(C)c2cnc3cc(F)c(-c4ccc(OCCCN5CCCC5)nc4F)cc3c21 [Example 13, 7-fluoro-8-[2-fluoro-6-(3-pyrrolidin-1-ylpropoxy)-3-pyridyl]-1-isopropyl-3-methyl-imidazo[4,5-c]quinolin-2-one]	1.32 nM	> 30000 nM	–
CC(C)n1c(=O)n(C)c2cnc3cc(F)c(-c4ccc(OCCCN5CCCCC5)nc4F)cc3c21 [Example 14, 7-fluoro-8-[2-fluoro-6-[3-(1-piperidyl)propoxy]-3-pyridyl]-1-isopropyl-3-methyl-imidazo[4,5-c]quinolin-2-one]	3.51 nM	> 30000 nM	–
CC(C)n1c(=O)n(C)c2cnc3cc(F)c(-c4ccc(OCCCN5CCC5)nc4F)cc3c21 [Example 16, 8-[6-[3-(azetidin-1-yl)propoxy]-2-fluoro-3-pyridyl]-7-fluoro-1-isopropyl-3-methyl-imidazo[4,5-c]quinolin-2-one]	2.29 nM	–	> 29900 nM
CC(C)n1c(=O)[nH]c2cnc3cc(F)c(-c4ccc(OCCCN5CCCCC5)nc4)cc3c21 [Example 18, 7-Fluoro-1-isopropyl-8-[6-[3-(1-piperidyl)propoxy]-3-pyridyl]-3H-imidazo[4,5-c]quinolin-2-one]	3.14 nM	–	> 30000 nM
CC(C)n1c(=O)n(C)c2cnc3cc(F)c(-c4ccc(OCCC[N+]5([O-])CCCCC5)nc4)cc3c21 [Metabolite A, 7-Fluoro-1-isopropyl-3-methyl-8-[6-[3-(1-oxidopiperidin-1-ium-1-yl)propoxy]-3-pyridyl]imidazo[4,5-c]quinolin-2-one]	35 nM	> 30000 nM	–

Source: patent US10457679B2, “Imidazo[4,5-c]quinolin-2-one compounds and their use in treating cancer” (AstraZeneca AB, priority 2015, dated 2019)
